Laboratory results reported in ChEMBL document CHEMBL1201862, “PubChem BioAssay data set” (2004).
Where “and” joins values, the source holds several entries; their conditions need not be identical. Equal values may be shown once.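 All cell lines were grown in 96-well plates and treated with compound for 48 hours. The concentration for 50% growth inhibition is given as GI50.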 Calls of active or inactive are those of the source. Cut-off read from the data, not from the text of the source: active = GI50 up to about 1.1 µM and inactive = higher.

Columns and labels:
Experiment in all cases: growth of human tumour cells (NCI), 48 h
U-251 = test system: U-251
DU-145 = test system: DU-145
A498 = test system: A498
SW-620 = test system: SW-620
EKVX = test system: EKVX
SK-MEL-5 = test system: SK-MEL-5
BT-549 = test system: BT-549
UO-31 = test system: UO-31
HCC 2998 = test system: HCC 2998
Malme-3M = test system: Malme-3M
HCT-15 = test system: HCT-15
NCI-H522 = test system: NCI-H522
MDA-MB-435 = test system: MDA-MB-435
786-0 = test system: 786-0
OVCAR-5 = test system: OVCAR-5
NCI-H23 = test system: NCI-H23
A549 = test system: A549
CAKI-1 = test system: CAKI-1
PC-3 = test system: PC-3
ACHN = test system: ACHN
RXF 393 = test system: RXF 393
MDA-N = test system: MDA-N
K562 = test system: K562
KM12 = test system: KM12
OVCAR-3 = test system: OVCAR-3
SN12C = test system: SN12C
Hs-578T = test system: Hs-578T
HT-29 = test system: HT-29
UACC-257 = test system: UACC-257
OVCAR-4 = test system: OVCAR-4
SNB-19 = test system: SNB-19
HL-60 = test system: HL-60
UACC-62 = test system: UACC-62
NCI/ADR-RES = test system: NCI/ADR-RES
LOX IMVI = test system: LOX IMVI
MCF7 = test system: MCF7
HCT-116 = test system: HCT-116
SF-295 = test system: SF-295
MDA-MB-231 = test system: MDA-MB-231
NCI-H226 = test system: NCI-H226
HOP-92 = test system: HOP-92
SR = test system: SR
SK-OV-3 = test system: SK-OV-3
IGROV-1 = test system: IGROV-1
CCRF-CEM = test system: CCRF-CEM
MOLT-4 = test system: MOLT-4
TK-10 = test system: TK-10
SK-MEL-28 = test system: SK-MEL-28
NCI-H460 = test system: NCI-H460
SK-MEL-2 = test system: SK-MEL-2
RPMI-8226 = test system: RPMI-8226
SF-268 = test system: SF-268
HOP-62 = test system: HOP-62
COLO 205 = test system: COLO 205

**Q.** What does the source list for COc1ccc(-c2c(C(C)=O)c(-c3ccccc3)n(C3OC(COC(C)=O)C(OC(C)=O)C(OC(C)=O)C3OC(C)=O)c(=S)c2C#N)cc1O (centres undefined)?
**A.** GI50 (U-251): 91.8 µM (inactive) and 69.5 µM (inactive); GI50 (DU-145): 37.8 µM (inactive) and 26.9 µM (inactive); GI50 (A498): > 100 µM (inactive); GI50 (SW-620): 93.8 µM (inactive) and 91.6 µM (inactive); GI50 (EKVX): 25.9 µM (inactive) and 34.6 µM (inactive); GI50 (SK-MEL-5): 33.4 µM (inactive) and 30.1 µM (inactive); GI50 (BT-549): 33.7 µM (inactive); GI50 (UO-31): 56.9 µM (inactive) and 36.4 µM (inactive); GI50 (HCC 2998): 24.1 µM (inactive) and 18.2 µM (inactive); GI50 (Malme-3M): 18.5 µM (inactive) and 16.4 µM (inactive); GI50 (HCT-15): 42.3 µM and 28 µM; GI50 (NCI-H522): 17.6 µM (inactive) and 10.1 µM (inactive); GI50 (MDA-MB-435): 39.1 µM (inactive) and 32 µM (inactive); GI50 (786-0): 36.5 µM (inactive) and 36.9 µM (inactive); GI50 (OVCAR-5): > 100 µM (inactive) and 66.7 µM (inactive); GI50 (NCI-H23): 35.4 µM (inactive) and 26 µM (inactive); GI50 (A549): 68.5 µM (inactive) and 44.9 µM (inactive); GI50 (CAKI-1): 62.8 µM (inactive) and 49.7 µM (inactive); GI50 (PC-3): 26.4 µM (inactive) and 41.4 µM (inactive); GI50 (ACHN): 40.8 µM (inactive) and 32.9 µM (inactive); GI50 (RXF 393): 40.6 µM (inactive) and 42.1 µM (inactive); GI50 (MDA-N): 27.5 µM (inactive) and 33.5 µM (inactive); GI50 (K562): 47.9 µM (inactive) and 49.4 µM (inactive); GI50 (KM12): 33.7 µM (inactive) and 19.1 µM (inactive); GI50 (OVCAR-3): 29.4 µM (inactive) and 16.8 µM (inactive); GI50 (SN12C): > 100 µM (inactive) and 52.1 µM (inactive); GI50 (Hs-578T): 47.6 µM (inactive) and 70.5 µM (inactive); GI50 (HT-29): 36.9 µM (inactive); GI50 (UACC-257): 55.8 µM (inactive) and 34.9 µM (inactive); GI50 (OVCAR-4): 31.8 µM (inactive) and 24.7 µM (inactive); GI50 (SNB-19): 71.4 µM (inactive); GI50 (HL-60): 7.1 µM (inactive); GI50 (UACC-62): 38.7 µM (inactive) and 19.9 µM (inactive); GI50 (NCI/ADR-RES): 38.3 µM (inactive); GI50 (LOX IMVI): 34.6 µM (inactive) and 23.2 µM (inactive); GI50 (MCF7): 28.6 µM (inactive) and 36.1 µM (inactive); GI50 (HCT-116): 21.8 µM (inactive) and 36.2 µM (inactive); GI50 (SF-295): 64.4 µM (inactive) and 36.4 µM (inactive)

**Q.** Which GI50 (MDA-MB-231) does the source give for S=C(/N=c1/sc(Nc2ccccc2)nc2sc3c(c12)CCCC3)Nc1ccccc1 here?
**A.** The GI50 was > 62.5 µM (inactive).

**Q.** What about the GI50 (U-251) of the same compound?
**A.** Its GI50 is > 62.5 µM (inactive).

**Q.** What about the GI50 (DU-145) of the same compound?
**A.** The GI50 was > 62.5 µM (inactive).

**Q.** What about the GI50 (A498) of the same compound?
**A.** The GI50 was > 62.5 µM (inactive).

**Q.** What about the GI50 (SW-620) of the same compound?
**A.** The GI50 was > 62.5 µM (inactive).

**Q.** What about the GI50 (EKVX) of the same compound?
**A.** Its GI50 is > 62.5 µM (inactive).

**Q.** What about the GI50 (SK-MEL-5) of the same compound?
**A.** The GI50 was > 62.5 µM (inactive).

**Q.** What about the GI50 (BT-549) of the same compound?
**A.** The GI50 was > 62.5 µM (inactive).

**Q.** What about the GI50 (UO-31) of the same compound?
**A.** Its GI50 is > 62.5 µM (inactive).

**Q.** What about the GI50 (HCC 2998) of the same compound?
**A.** The GI50 was > 62.5 µM (inactive).

**Q.** And the GI50 (Malme-3M)?
**A.** Its GI50 is > 62.5 µM (inactive).

**Q.** And the GI50 (HCT-15)?
**A.** The GI50 was over 62.5 µM.

**Q.** What about the GI50 (NCI-H226) of the same compound?
**A.** The GI50 was > 62.5 µM (inactive).

**Q.** And the GI50 (HOP-92)?
**A.** Its GI50 is > 62.5 µM (inactive).

**Q.** What about the GI50 (NCI-H522) of the same compound?
**A.** Its GI50 is > 62.5 µM (inactive).

**Q.** And the GI50 (MDA-MB-435)?
**A.** The GI50 was > 62.5 µM (inactive).

**Q.** And the GI50 (786-0)?
**A.** Its GI50 is > 62.5 µM (inactive).

**Q.** What about the GI50 (SR) of the same compound?
**A.** The GI50 was > 62.5 µM (inactive).

**Q.** And the GI50 (SK-OV-3)?
**A.** The GI50 was > 62.5 µM (inactive).

**Q.** What about the GI50 (OVCAR-5) of the same compound?
**A.** The GI50 was > 62.5 µM (inactive).

**Q.** And the GI50 (IGROV-1)?
**A.** Its GI50 is > 62.5 µM (inactive).

**Q.** And the GI50 (NCI-H23)?
**A.** The GI50 was > 62.5 µM (inactive).

**Q.** What about the GI50 (CCRF-CEM) of the same compound?
**A.** The GI50 was > 62.5 µM (inactive).

**Q.** What about the GI50 (CAKI-1) of the same compound?
**A.** The GI50 was > 62.5 µM (inactive).

**Q.** What about the GI50 (PC-3) of the same compound?
**A.** Its GI50 is > 62.5 µM (inactive).

**Q.** And the GI50 (ACHN)?
**A.** Its GI50 is > 62.5 µM (inactive).

**Q.** And the GI50 (MOLT-4)?
**A.** Its GI50 is > 62.5 µM (inactive).

**Q.** What about the GI50 (RXF 393) of the same compound?
**A.** Its GI50 is > 62.5 µM (inactive).

**Q.** And the GI50 (TK-10)?
**A.** The GI50 was > 62.5 µM (inactive).

**Q.** What about the GI50 (SK-MEL-28) of the same compound?
**A.** The GI50 was > 62.5 µM (inactive).

**Q.** And the GI50 (MDA-N)?
**A.** The GI50 was > 62.5 µM (inactive).

**Q.** And the GI50 (K562)?
**A.** The GI50 was > 62.5 µM (inactive).

**Q.** What about the GI50 (KM12) of the same compound?
**A.** The GI50 was > 62.5 µM (inactive).

**Q.** And the GI50 (OVCAR-3)?
**A.** Its GI50 is > 62.5 µM (inactive).

**Q.** What about the GI50 (NCI-H460) of the same compound?
**A.** Its GI50 is > 62.5 µM (inactive).

**Q.** What about the GI50 (SN12C) of the same compound?
**A.** Its GI50 is > 62.5 µM (inactive).

**Q.** What about the GI50 (Hs-578T) of the same compound?
**A.** Its GI50 is > 62.5 µM (inactive).

**Q.** And the GI50 (SK-MEL-2)?
**A.** Its GI50 is > 62.5 µM (inactive).

**Q.** And the GI50 (HT-29)?
**A.** The GI50 was > 62.5 µM (inactive).

**Q.** And the GI50 (UACC-257)?
**A.** Its GI50 is > 62.5 µM (inactive).

**Q.** And the GI50 (OVCAR-4)?
**A.** Its GI50 is > 62.5 µM (inactive).

**Q.** What about the GI50 (SNB-19) of the same compound?
**A.** Its GI50 is > 62.5 µM (inactive).

**Q.** And the GI50 (RPMI-8226)?
**A.** The GI50 was 62.2 µM (inactive).

**Q.** What about the GI50 (SF-268) of the same compound?
**A.** The GI50 was > 62.5 µM (inactive).

**Q.** What about the GI50 (HL-60) of the same compound?
**A.** Its GI50 is > 62.5 µM (inactive).

**Q.** What about the GI50 (UACC-62) of the same compound?
**A.** Its GI50 is > 62.5 µM (inactive).

**Q.** What about the GI50 (HOP-62) of the same compound?
**A.** Its GI50 is > 62.5 µM (inactive).

**Q.** What about the GI50 (LOX IMVI) of the same compound?
**A.** The GI50 was > 62.5 µM (inactive).

**Q.** What about the GI50 (COLO 205) of the same compound?
**A.** Its GI50 is > 62.5 µM (inactive).

**Q.** What about the GI50 (MCF7) of the same compound?
**A.** The GI50 was > 62.5 µM (inactive).

**Q.** And the GI50 (HCT-116)?
**A.** Its GI50 is > 62.5 µM (inactive).
